Measurements reported in US6495065B1, “Nitrosamine-inhibiting compositions for shortstopping of free radical emulsion polymerizations” (Atofina Chemicals, Inc., priority 1999, dated 2002).

Assay: Solubility in water

Structure (SMILES) | Solubility in water [wt. %]
CCN(O)CC [DEHA, diethylhydroxylamine] | ~85
CC(C)NO [NiPHA, N-isopropylhydroxylamine] | ~15
